Here are results for 3 compounds from ChEMBL document CHEMBL5390322, “Discovery of 5-Azaquinoxaline Derivatives as Potent and Orally Bioavailable Allosteric SHP2 Inhibitors” (ACS Med Chem Lett, 2023).

For data set [1], the target named is T1, Tyrosine-protein phosphatase non-receptor type 11 (Homo sapiens, UniProt Q06124).
T1 sequence (Q06124 whole entry): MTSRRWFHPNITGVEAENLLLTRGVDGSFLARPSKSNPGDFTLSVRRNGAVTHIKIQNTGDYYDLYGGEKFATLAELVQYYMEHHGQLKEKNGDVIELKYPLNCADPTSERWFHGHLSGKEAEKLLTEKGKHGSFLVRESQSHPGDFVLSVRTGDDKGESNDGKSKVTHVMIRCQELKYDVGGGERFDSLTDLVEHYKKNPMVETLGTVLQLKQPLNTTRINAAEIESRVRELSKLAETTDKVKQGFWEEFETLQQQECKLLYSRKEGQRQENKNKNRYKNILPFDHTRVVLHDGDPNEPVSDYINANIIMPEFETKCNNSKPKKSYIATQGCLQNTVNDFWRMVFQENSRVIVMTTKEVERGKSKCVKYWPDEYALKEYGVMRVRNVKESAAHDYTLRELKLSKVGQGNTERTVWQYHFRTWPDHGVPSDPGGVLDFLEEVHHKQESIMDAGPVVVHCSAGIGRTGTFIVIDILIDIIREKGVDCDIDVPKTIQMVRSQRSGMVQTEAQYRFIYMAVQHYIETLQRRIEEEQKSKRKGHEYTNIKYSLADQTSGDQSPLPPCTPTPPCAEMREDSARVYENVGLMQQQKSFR
In words: Allosteric inhibition of recombinant full length 6His-tagged SHP2 (2 to 527 residues) (unknown origin) expressed in Escherichia coli using DiFMUP as substrate incubated for 15 mins by microplate reader analysis.

Data set [2] deals with T2, Mitogen-activated protein kinase; ERK1/ERK2 (Homo sapiens, UniProt P27361+P28482). Description: Inhibition of ERK1/2 phosphorylation at Thr202/Tyr204 residues in human KYSE520 cells incubated for 1 hrs by Western blot analysis. In kind it is cell-based. (A western blot detects proteins with antibodies after separation by electrophoresis.)
T2 sequence (P27361 whole entry, looked up): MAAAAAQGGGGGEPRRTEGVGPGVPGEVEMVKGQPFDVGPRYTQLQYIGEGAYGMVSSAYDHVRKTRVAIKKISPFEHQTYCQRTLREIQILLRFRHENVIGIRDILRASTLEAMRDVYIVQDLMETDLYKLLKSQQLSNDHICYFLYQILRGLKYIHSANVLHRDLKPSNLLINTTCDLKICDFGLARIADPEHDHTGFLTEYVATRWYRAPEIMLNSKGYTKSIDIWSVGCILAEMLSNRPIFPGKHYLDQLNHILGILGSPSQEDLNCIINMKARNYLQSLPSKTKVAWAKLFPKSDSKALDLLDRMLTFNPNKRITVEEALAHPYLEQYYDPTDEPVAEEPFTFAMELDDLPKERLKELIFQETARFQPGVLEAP
T2 sequence (P28482 whole entry, looked up): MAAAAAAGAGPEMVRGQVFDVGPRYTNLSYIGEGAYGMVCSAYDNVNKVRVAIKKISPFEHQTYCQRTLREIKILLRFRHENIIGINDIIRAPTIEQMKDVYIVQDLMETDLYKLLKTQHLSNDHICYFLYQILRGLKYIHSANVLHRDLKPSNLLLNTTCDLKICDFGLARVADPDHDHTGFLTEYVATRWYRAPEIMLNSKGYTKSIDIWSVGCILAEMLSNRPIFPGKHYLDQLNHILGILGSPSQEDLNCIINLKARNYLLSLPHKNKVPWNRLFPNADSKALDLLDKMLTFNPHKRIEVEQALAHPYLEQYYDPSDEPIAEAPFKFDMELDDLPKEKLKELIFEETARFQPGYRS
The nature of data set [3]: Solubility of the compound in FaSSIF at 1 mg/ml incubated for 24 hrs by LC-MS/MS analysis. The data set is classed as physicochemical.
The nature of data set [4]: Metabolic stability in mouse liver microsome assessed as intrinsic clearance at […] preincubated for 5 mins followed by NADPH addition and measured after 20 mins by LC-MS analysis. The settings on record: liver microsomes, dose 2.5 µM, time 25 min, read-out: CLH. The data set is classed as ADME. (In general: Liver microsomes are vesicles of endoplasmic reticulum, rich in cytochrome P450 enzymes.)

Data set [5] can be described thus: Metabolic stability in human liver microsome assessed as intrinsic clearance at […] preincubated for 5 mins followed by NADPH addition and measured after 20 mins by LC-MS analysis. The data set is classed as ADME. The settings on record: liver microsomes, dose 2.5 µM, time 25 min, read-out: CLH.
Data set [6] can be described thus: Metabolic stability in mouse hepatocyte assessed as intrinsic clearance incubated for 1 to 2 hrs by LC-MS analysis. The settings on record: hepatocytes, time 1-2 hrs, read-out: CLH. In kind it is ADME, cell-based.
Data set [7] is described as follows: Metabolic stability in human hepatocyte assessed as intrinsic clearance incubated for 1 to 2 hrs by LC-MS analysis. In kind it is ADME, cell-based. The settings on record: hepatocytes, time 1-2 hrs, read-out: CLH.
Data set [8] is described as follows: Permeability of compound from apical to basolateral side in LLC-PK1 cells incubated for 2 hrs by LC-MS/MS analysis. The data set is classed as ADME, cell-based, Sus scrofa. The settings on record: pig, read-out: permeability.
The nature of data set [9]: Clearance in CD-1 mouse at 1 mg/kg, iv measured upto 8 hrs by LC-MS/MS method. The data set is classed as ADME, organism-based. The note with it: in vivo.
The nature of data set [10]: Half life in CD-1 mouse at 1 mg/kg, iv measured upto 8 hrs by LC-MS/MS method. The data set is classed as ADME, organism-based. The settings on record: in vivo.
The nature of data set [11]: Volume of distribution at steady state in CD-1 mouse at 1 mg/kg, iv measured upto 8 hrs by LC-MS/MS method. The data set is classed as ADME, organism-based. The settings on record: in vivo, read-out: Vdss.
Data set [12] in a line: Cmax in CD-1 mouse at 10 mg/kg, po measured upto 24 hrs by LC-MS/MS method. In kind it is ADME, organism-based. Also on record: dose 10 mg/kg, time < 24 hrs, route po. The note with it: in vivo.
Data set [13] is described as follows: Tmax in CD-1 mouse at 10 mg/kg, po measured upto 24 hrs by LC-MS/MS method. In kind it is ADME, organism-based. The note with it: in vivo.
Data set [14] is described as follows: AUClast in CD-1 mouse at 10 mg/kg, po measured upto 24 hrs by LC-MS/MS method. The data set is classed as ADME, organism-based. Also on record: time < 24 hrs, dose 10 mg/kg, route po. The settings on record: in vivo.
Data set [15] can be described thus: Oral bioavailability in CD-1 mouse at 10 mg/kg measured upto 24 hrs by LC-MS/MS method. The data set is classed as ADME, organism-based. The note with it: in vivo.
The target of data set [16] is T2, Mitogen-activated protein kinase; ERK1/ERK2. The note with it: KYSE520, time 1.0 hrs.
For data set [17] the target is unchanged. The note with it: KYSE520, time 1.0 hrs. The source holds these as a separate data set.
The nature of data set [18]: AUC(0 to infinity) in CD-1 mouse at 10 mg/kg, po measured upto 24 hrs by LC-MS/MS method. The note with it: in vivo. The data set is classed as ADME, organism-based. Also on record: time < 24 hrs, dose 10 mg/kg, route po.
Data set [19] in a line: Toxicity in athymic nude Foxn1nu mouse xenografted with human MIA PaCa-2 cells harboring KRAS G12C mutant assessed as body weight loss at 30 to 100 mg/kg,po administrated for 28 days and measured every 3 to 4 days relative to control. In kind it is organism-based. The settings on record: in vivo, 672 h, dose 30-100 mg/kg, time 28 day.
The test system of data set [20] is MIA PaCa-2. Description: Antitumor activity against human MIA PaCa-2 cells harboring KRAS G12C mutant xenografted in athymic nude Foxn1nu mouse assessed as tumor growth inhibition at 30 mg/kg,po administrated for 28 days and measured every 3 to 4 days relative to control. In kind it is functional. The settings on record: time 28 day. Background: In xenograft studies the graft and the host belong to different species.

In data set [21] the test system is MIA PaCa-2. In words: Antitumor activity against human MIA PaCa-2 cells harboring KRAS G12C mutant xenografted in athymic nude Foxn1nu mouse assessed as tumor growth inhibition at 100 mg/kg,po administrated for 28 days and measured every 3 to 4 days relative to control. In kind it is functional. The settings on record: time 28 day.

≈ marks a conversion by molar mass, not a printed value.

The term IC50 denotes the point on the concentration scale where inhibition reaches its midpoint. As a reminder, the solubility is the dissolved amount per volume that the medium holds. In the case of `Nc1nccc(Sc2ccc3nc(N4CCC5(CC4)Cc4cc(Cl)ccc4[C@H]5N)cnc3n2)c1Cl`, the results for the IC50 in data set [1] and in data set [2] were 0.035 µM and 0.078 µM, respectively. In [3], this compound registered a solubility at 24 h of 24 µg/mL (≈ 45.8 µM).

A word on the clearance: it is the rate of elimination divided by the concentration. The half-life is the time needed for the level to fall by half in the phase considered. The low end stands for rapid decline, the high end for slow decline. A word on the Cmax: it is the peak of the concentration-time curve. A word on the Tmax: it is the time from dosing to the highest level. As a reminder, the AUC(0-t) is the area under the concentration-time curve up to a stated or last time point. Low values mean less exposure, high ones more exposure. One may read the bioavailability as dose-corrected exposure relative to a reference, in per cent. A low value points to poor availability. Take `C[C@@H]1OCC2(CCN(c3cnc4nc(Sc5ccnc(N)c5Cl)ccc4n3)CC2)[C@@H]1N`: the IC50 in [1] was 0.072 µM; in data set [2], 0.058 µM. The CLint scaled at […] in data set [4] was 24 mL/min/kg; in [5] it was 3 mL/min/kg. Also, the CLint scaled in data set [6] turned out to be 16 mL/min/kg. In [7], the CLint scaled at 10000 µM came to 5 mL/min/kg. Also, the Papp A→B at 2 h in [8] turned out to be 13 ×10⁻⁶ cm/s. Moreover, in data set [3], the solubility at 24 h is 894 µg/mL (≈ 1950 µM). Further, the clearance in data set [9] amounted to 34.3 mL/min/kg. Besides, the half-life in [10] was 1.48 h. Besides, the Vd in [11] was 3.46 L/kg. Moreover, the Cmax in data set [12] was 533 ng/mL. The Tmax in data set [13] is 2 h. Besides, the AUC(0-t) at 24 h in [14] amounted to 2820 ng·h/mL. Moreover, the bioavailability in data set [15] was found to be 58.1%. In addition, the fIC50 in [16] and in [17] was 0.244 µg/mL throughout. Moreover, the fIC90 in [16] and in [17] was 2.2 µg/mL each time.

In general, AUC(0-inf) refers to the area under the concentration-time curve extrapolated to infinity. Lower therefore signals less exposure. The TGI is how far tumour growth fell short of that in controls. `Nc1nccc(Sc2ccc3nc(N4CCC5(CC4)Cc4ncccc4[C@H]5N)cnc3n2)c1Cl` came in with an IC50 in [2] of 0.005 µM. Besides, the CLint scaled at […] in [4] stood at 35 mL/min/kg; in data set [5], 9 mL/min/kg. Also, the CLint scaled in [6] came out at 28 mL/min/kg. The CLint scaled at 10000 µM in data set [7] is 11 mL/min/kg. The Papp A→B at 2 h in [8] worked out at 11 ×10⁻⁶ cm/s. The compound also yielded a solubility at 24 h in data set [3] of 271 µg/mL (≈ 552 µM). Also, the clearance in data set [9] stood at 19.2 mL/min/kg. This compound showed a half-life in data set [10] of 1.44 h. The Vd in [11] stood at 1.74 L/kg. This compound also had a Cmax in [12] of 649 ng/mL. The Tmax in [13] came to 4 h. In data set [15], this compound registered a bioavailability of 66.5%. The same compound came in with an AUC(0-inf) in data set [18] of 5780 ng·h/mL. Moreover, in data set [19], the Activity is < 5%. Moreover, the TGI in the data set on MIA PaCa-2 [20] was 38%; with MIA PaCa-2 [21], 75%. For the same compound, the fIC50 in data set [16] and in [17] was 0.06 µg/mL throughout. Further, the fIC90 in data set [16] and in [17] was 0.535 µg/mL each time.
